Common to all, as to assay: DTP human tumour cell line panel, 48 h
Experiment [1] has as its system SR leukemia.
Experiment [2] relates to NCI-H23 lung.
For experiment [3], the system named is UACC-62 melanoma.
In experiment [4] the test system is IGROV1 ovarian.
Experiment [5] has as its system SK-OV-3 ovarian.
For experiment [6], the system named is HCT-15 colon.
Experiment [7] concerns HS 578T breast.
Experiment [8] has as its system HT29 colon.
For experiment [9], the system named is OVCAR-4 ovarian.
Experiment [10] deals with SN12C renal.
Experiment [11] has as its system MOLT-4 leukemia.
For experiment [12], the system named is BT-549 breast.
Experiment [13] has as its system COLO 205 colon.
Experiment [14] deals with SK-MEL-5 melanoma.
Experiment [15] deals with SK-MEL-2 melanoma.
Experiment [16] has as its system UACC-257 melanoma.
In experiment [17] the test system is RPMI-8226 leukemia.
The subject of experiment [18] is HOP-92 NSCLC.
Experiment [19] deals with A498 renal.

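Five compound concentrations were applied to cells in 96-well plates for 48 hours; endpoints were derived by simple linear interpolation of the resulting dose-response curve. TGI: concentration producing complete growth inhibition.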 A value given as a limit tells only on which side of the number the result lay.

Take `COP(=O)(C(/C=C/c1ccccc1)OC(C)=O)[C@@H]1CCCC[C@H]1N(CC(C)(C)C)C(C)=O` (stereo partly drawn): the total growth inhibition concentration (TGI) in experiment [1] is 36.2 µM; in experiment [2], 42.5 µM; in [3], 28 µM; in [4], 24.1 µM; in experiment [5], greater than 100 µM; in experiment [6], 61.6 µM. The total growth inhibition concentration (TGI) was found to be 31.1 µM in experiment [7]; 28 µM in experiment [8]; 33.1 µM in experiment [9]; 30.2 µM in [10]; 27.7 µM in [11]; 33 µM in experiment [12]. The concentration for total growth inhibition (TGI) in experiment [13] is 27.1 µM; in [14], 27.3 µM; in experiment [15] it was 29.8 µM; in [16], 31 µM.

As for `CC1C(=O)C23OC[C@@]1(C)C1(O)CC[C@@H](C)[C@]21CC3=O` (stereo partly drawn), the concentration for total growth inhibition (TGI) in experiment [1], in experiment [2], in experiment [3], in experiment [4], in [5] and in [6] was greater than 100 µM each time. Besides, the TGI in experiment [7], in experiment [8], in [9], in [10], in experiment [11] and in [17] was greater than 100 µM each time. The TGI in [12], in [13], in experiment [14], in experiment [15] and in experiment [16] was greater than 100 µM throughout.

`Nc1cnc2c(c1)c(=O)nc1n2CCS1`: the TGI in [18], in experiment [2], in [3], in experiment [5], in experiment [6] and in experiment [8] was greater than 100 µM in each case. In addition, the concentration for total growth inhibition (TGI) in [19], in experiment [9], in experiment [10], in [11], in experiment [17] and in experiment [12] was greater than 100 µM each time. The concentration for total growth inhibition (TGI) in [13], in experiment [14], in [15] and in [16] was greater than 100 µM throughout.

As for `CC1(C)O[C@@H](CP(c2ccccc2)c2ccccc2)[C@H](CP(c2ccccc2)c2ccccc2)O1`, the TGI in experiment [18] is 27.1 µM; in experiment [2] it was 14.6 µM; in experiment [4] it was 16.5 µM; in [5], greater than 100 µM; in experiment [6], 44.5 µM; in [8] it was 47.7 µM. Besides, the TGI in experiment [19] was 39.1 µM; in [9], greater than 100 µM; in experiment [10], 18.7 µM; in [11], greater than 100 µM; in experiment [17] it was 59.1 µM; in experiment [12], 9.02 µM. Further, the results for the TGI in experiment [13], in [14] and in [16] were 12.4 µM, 19.4 µM and 30.7 µM, respectively.

With `COc1ccc2c(c1)CC[C@@H]1[C@@H]2CC[C@]2(C)[C@@H](O)/C(=C/c3ccncc3)C[C@@H]12`, the TGI came out at 28 µM in [18]; 31.7 µM in experiment [2]; 29.6 µM in experiment [3]; 30 µM in experiment [4]; 49.4 µM in [5]; 23.6 µM in experiment [6]. The TGI was 32 µM in experiment [7]; 15 µM in [8]; 38.3 µM in [19]; greater than 100 µM in experiment [9]; 61.3 µM in experiment [10]; 26.4 µM in [11]. Moreover, the total growth inhibition concentration (TGI) in [17] is 25.1 µM; in experiment [12] it was 31.6 µM; in [13], 16 µM; in experiment [14] it was 21.4 µM; in experiment [15], 31.1 µM; in experiment [16], 35.6 µM.

On to `COc1ccc(-n2c(=O)n(C)c(=O)n2-c2c(C)c(C)c(C)c(C)c2C)cc1`, for which the total growth inhibition concentration (TGI) in experiment [18], in experiment [2], in [3], in experiment [4], in experiment [5] and in experiment [6] was greater than 100 µM in each case. Besides, the concentration for total growth inhibition (TGI) in experiment [7], in experiment [8], in [19], in experiment [9], in experiment [10] and in experiment [11] was greater than 100 µM throughout. Further, the TGI in experiment [17], in experiment [12], in experiment [13], in experiment [14], in [15] and in [16] was greater than 100 µM throughout.

For the molecule `Cc1cc(C)c(NS(=O)c2cccc([N+](=O)[O-])c2)c(C)c1` (stereo not drawn), the TGI in experiment [1], in experiment [18], in experiment [2], in [6], in experiment [8] and in experiment [19] was greater than 100 µM throughout. Moreover, the TGI in experiment [10], in experiment [11], in experiment [17], in experiment [12], in experiment [13] and in experiment [16] was greater than 100 µM in each case.

On to `COC(=O)CNC(=O)Nc1cc(N2C(=O)ON3C2C(C)(C)N(O)C3(C)C)ccc1C` (stereo not drawn), for which the TGI in experiment [1], in [2], in [3], in [4], in experiment [5] and in experiment [6] was greater than 100 µM in each case. In addition, the TGI in [7], in experiment [8], in experiment [9], in experiment [10], in experiment [11] and in experiment [12] was greater than 100 µM each time. Besides, the TGI in [13], in experiment [14], in experiment [15] and in experiment [16] was greater than 100 µM throughout.

As to `CCCCOc1ccc(S(=O)(=O)/N=C(\NN)Nc2ccc(Cl)cc2)cc1`, the total growth inhibition concentration (TGI) in experiment [1] was 52.6 µM; in [18], 67.2 µM; in experiment [2], greater than 100 µM; in experiment [3] it was greater than 100 µM; in experiment [4], 60.2 µM; in [5], 67.4 µM. In addition, the TGI in experiment [6] was greater than 100 µM; in [8] it was 48.9 µM; in experiment [19] it was greater than 100 µM; in experiment [9], 45.3 µM; in experiment [10] it was 38.6 µM; in experiment [11] it was greater than 100 µM. The concentration for total growth inhibition (TGI) was greater than 100 µM in [17]; greater than 100 µM in experiment [12]; 38.5 µM in experiment [13]; greater than 100 µM in experiment [14]; greater than 100 µM in [15]; 68.7 µM in experiment [16].

Consider `Cc1cc(Br)cc(C)c1NC(=O)C(=O)C1C(=O)C(CC2C(=O)c3ccccc3C2=O)C(=O)CC1(C)C` (stereo not drawn), for which the TGI in experiment [18], in experiment [2], in [3], in experiment [4], in experiment [5] and in [6] was greater than 100 µM throughout. Further, the concentration for total growth inhibition (TGI) in experiment [7] is greater than 100 µM; in [8], greater than 100 µM; in experiment [9], greater than 100 µM; in experiment [10], greater than 100 µM; in [11], 74.5 µM; in experiment [12], greater than 100 µM. Moreover, the TGI in [13], in experiment [14], in [15] and in [16] was greater than 100 µM each time.

In the case of `NC(=O)C(=CN1CC(=O)NC1=S)C(N)=O`, the TGI in experiment [18], in experiment [2], in experiment [3], in experiment [4], in [5] and in [6] was greater than 100 µM throughout. Moreover, the concentration for total growth inhibition (TGI) in experiment [8], in [19], in experiment [9], in experiment [10], in experiment [11] and in experiment [12] was greater than 100 µM each time. Moreover, the TGI in experiment [13], in [14], in [15] and in experiment [16] was greater than 100 µM in each case.

With `COc1cccc(-c2cc(=O)c3cccnc3[nH]2)c1`, the concentration for total growth inhibition (TGI) in experiment [18], in experiment [3], in experiment [4], in [5], in experiment [6] and in experiment [7] was greater than 100 µM throughout. Moreover, the TGI in experiment [8] was 0.561 µM; in experiment [19], greater than 100 µM; in [9], greater than 100 µM; in [10], greater than 100 µM; in experiment [11], greater than 100 µM; in experiment [17], greater than 100 µM. Besides, the concentration for total growth inhibition (TGI) in [12] is greater than 100 µM; in experiment [14], 13.1 µM; in experiment [15] it was greater than 100 µM; in experiment [16] it was greater than 100 µM.

Take `COc1ccc(C2C(Cl)C(=O)N2NC(=O)c2ccc(N)cc2)cc1OC` (stereo not drawn): the concentration for total growth inhibition (TGI) in [1] worked out at 4.85 µM; in experiment [18] it was 5.07 µM; in experiment [2] it was 18.8 µM; in [3], 16 µM; in experiment [4], 3.27 µM; in [5], 33 µM. For the same molecule, the TGI in experiment [6] was 21.3 µM; in experiment [8], 6.28 µM; in experiment [19] it was 31.5 µM; in [9], 19 µM; in [10], 24.5 µM; in [11] it was 5.16 µM. For the same molecule, the total growth inhibition concentration (TGI) came to 9.04 µM in [17]; 18.3 µM in experiment [12]; 30.3 µM in experiment [13]; 26.3 µM in experiment [14]; 26.6 µM in experiment [15]; 29.1 µM in experiment [16].

For the molecule `O=C(/C=C/c1ccc(F)c(F)c1)OCCc1ccccc1`, the TGI in experiment [1], in [2], in experiment [3], in experiment [4], in experiment [5] and in [6] was greater than 100 µM throughout. Moreover, the TGI in experiment [7], in [8], in [9], in experiment [10], in experiment [11] and in experiment [17] was greater than 100 µM each time. Moreover, the TGI in experiment [12], in experiment [13], in experiment [14], in [15] and in experiment [16] was greater than 100 µM each time.

`O=[N+]([O-])c1ccc(N2N=C(c3ccc4ccccc4c3O)CC2c2ccc(Cl)cc2Cl)c([N+](=O)[O-])c1` (stereo not drawn): the TGI is greater than 100 µM in [2]; greater than 100 µM in [3]; greater than 100 µM in [4]; greater than 100 µM in experiment [5]; greater than 100 µM in experiment [6]; 95.3 µM in experiment [7]. The total growth inhibition concentration (TGI) in experiment [8] was greater than 100 µM; in experiment [9] it was greater than 100 µM; in experiment [10], greater than 100 µM; in [11] it was 38 µM; in experiment [17] it was 41.4 µM; in experiment [12], greater than 100 µM. The concentration for total growth inhibition (TGI) in experiment [13], in experiment [14], in experiment [15] and in experiment [16] was greater than 100 µM each time.

Consider `Cc1ccccc1NC(=O)C(=O)Cc1cnc2ccccc2n1`, for which the TGI in [18], in [2], in experiment [3], in experiment [4], in experiment [5] and in experiment [6] was greater than 100 µM each time. Also, the total growth inhibition concentration (TGI) in experiment [7], in experiment [8], in experiment [19], in experiment [9], in experiment [10] and in experiment [11] was greater than 100 µM each time. In addition, the total growth inhibition concentration (TGI) in experiment [17], in [12], in experiment [13], in experiment [14], in [15] and in experiment [16] was greater than 100 µM in each case.

As usually defined, the TGI is the concentration at which net growth stops. A high value points to less potent growth arrest.

Values taken from PubChem BioAssay (NCI).
